Laboratory results from patent US20250206722A1, “SMALL MOLECULE INHIBITORS OF TEA DOMAIN FAMILY MEMBERS” (The Scripps Research Institute, priority 2022, published 2025).
pIC50: −log10 of the molar value.

Assays:
Type in all cases: cell-based
NCI-H226 cells = assay: NCI-H226 proliferation assay (in house); conditions: Homo sapiens, 120 h, 5 days, Cell TiterGlo, 20-point 1:2 dilution from 20 μM
How it was run: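 Cells in RPMI 1640 + 10% FBS, 500 per well, dosed after 24 h with 20-point 1:2 dilutions from 20 μM (final), in triplicate. After 5 days at 37 °C, 5% CO2, viability read by CellTiter-Glo luminescence.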

[1] = tested on: transcriptional activity of TEADs; assay: TEAD reporter assay (MCF7 TEAD-LUC reporter cells); conditions: Homo sapiens, 24 hours, BrightGlo luminescence
How it was run: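 MCF7 TEAD-LUC reporter cells were plated at 5,000/well and after 24 h treated with a 20-point 1:2 series from 20 μM final, in triplicate. Luciferase was read by BrightGlo luminescence after 24 h exposure at 37 °C.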

IMR32 cells = assay: IMR32 cytotoxicity assay; conditions: Homo sapiens, IMR-32, 72 h, 3 days, Cell TiterGlo
Procedure: IMR32 cells were obtained from American Type Culture Collection (ATCC, CCL-127) and cultured in DMEM (Corning, 10-013-CV) supplemented with 10% fetal bovine serum (Gibco, 10438-026) and 1% penicillin-streptomycin (Gibco, 15070063). Cells were trypsinized, resuspended in growth medium, and diluted to a concentrated of 20,000 cells/mL. 1,000 cells, 50 μL of cell suspension, per well were then plated in a white 384-well plate (Corning) and incubated at 37° C., 5% CO2. After 24 hours incubation, 100 nL of test compounds in DMSO, 20-point 1:2 dilution starting from 20 μM (final concentration) in triplicate, were transferred to each well using an Agilent Bravo instrument outfitted with a pintool head. Cells were incubated at 37° C., 5% CO2 for 3 days followed by the addition of 30 μL of Cell TiterGlo (Promega; diluted 1:6 in water) to each well and luminescence values recorded using an EnVision plate reader. […]

Compound | IC50 (NCI-H226 cells) [µM] | pIC50 [1] | pIC50 (IMR32 cells)
N#CN1CCN(c2nccnc2Nc2ccc(C(F)(F)F)cc2)CC1 [Compound 2, 4-(3-{[4-(trifluoromethyl)phenyl]amino}pyrazin-2-yl)piperazine-1-carbonitrile] | 0.252 | 6.33 | < 4.70
C=CC(=O)NC1CN(c2nccnc2Nc2ccc(C(F)(F)F)cc2)C1 [Example 3, N-(1-(3-((4-(trifluoromethyl)phenyl)amino)pyrazin-2-yl)azetidin-3-yl) acrylamide] | 8.24 | 5.42 | 5.00
C=CC(=O)N[C@H]1C[C@@H](Nc2nccnc2Nc2ccc(C(F)(F)F)cc2)C1 [Example 5, N-((ls,3s)-3-((3-((4-(trifluoromethyl)phenyl)amino)pyrazin-2-yl)amino)cyclobutyl) acrylamide] | 13.7 | 6.39 | < 4.70
C=CC(=O)NC1CC2(C1)CN(c1nccnc1Nc1ccc(C(F)(F)F)cc1)C2 [Example 6, N-(2-(3-((4-(trifluoromethyl)phenyl)amino)pyrazin-2-yl)-2-azaspiro[3.3]heptan-6-yl)acrylamide] | > 10 | < 4.70 | < 4.70
C=CC(=O)NC1CCN(c2nccnc2Nc2ccc(C(F)(F)F)cc2)C1 (stereo not drawn) [Example 7, N-(1-(3-((4-(trifluoromethyl)phenyl)amino)pyrazin-2-yl)pyrrolidin-3-yl)acrylamide] | 0.195 | 7.54 | < 5.00
C=CC(=O)N1CCC(Nc2nccnc2Nc2ccc(C(F)(F)F)cc2)C1 (stereo not drawn) [Example 8, 1-(3-((3-((4-(trifluoromethyl)phenyl)amino)pyrazin-2-yl)amino)pyrrolidin-1-yl)prop-2-en-1-one] | 8.48 | 7.31 | < 5.30
C=CC(=O)NC1CCN(c2nccnc2Nc2ccc(C(F)(F)F)cc2)CC1 [Example 9, N-(1-(3-((4-(trifluoromethyl)phenyl)amino)pyrazin-2-yl)piperidin-4-yl)acrylamide] | > 10 | 7.53 | 5.00
C=CC(=O)NCC1CCCN(c2nccnc2Nc2ccc(C(F)(F)F)cc2)C1 (stereo not drawn) [Example 10, N-((1-(3-((4-(trifluoromethyl)phenyl)amino)pyrazin-2-yl)piperidin-3-yl)methyl)acrylamide] | > 14 | 4.95 | 5.00
C=CC(=O)N1CC2CC1CN2c1nccnc1Nc1ccc(C(F)(F)F)cc1 (stereo not drawn) [Example 11, 1-(5-(3-((4-(trifluoromethyl)phenyl)amino)pyrazin-2-yl)-2,5-diazabicyclo[2.2.1]heptan-2-yl)prop-2-en-1-one] | 0.483 | 7.36 | 5.85
C=CC(=O)N1[C@@H]2CC[C@H]1CN(c1nccnc1Nc1ccc(C(F)(F)F)cc1)C2 [Example 12, 1-((1R,5S)-3-(3-((4-(trifluoromethyl)phenyl)amino)pyrazin-2-yl)-3,8-diazabicyclo[3.2.1]octan-8-yl)prop-2-en-1-one] | 1.16 | 6.31 | 5.00
C=CC(=O)N1CCN(c2nccnc2Nc2ccc(C(F)(F)F)cc2)C[C@H]1C [Example 13, (R)-1-(2-methyl-4-(3-((4-(trifluoromethyl)phenyl)amino)pyrazin-2-yl)piperazin-1-yl)prop-2-en-1-one] | 0.0159 | 8.46 | < 5.00
C=CC(=O)N1CCN(c2nccnc2Nc2ccc(C(F)(F)F)cc2)C[C@@H]1C [Example 14, (S)-1-(2-methyl-4-(3-((4-(trifluoromethyl)phenyl)amino)pyrazin-2-yl)piperazin-1-yl)prop-2-en-1-one] | 0.0246 | 8.53 | < 5.00
C=CC(=O)N1CCN(c2nccnc2Nc2ccc(C(F)(F)F)cc2)C[C@@H]1CO [Example 15, (R)-1-(2-(hydroxymethyl)-4-(3-((4-(trifluoromethyl)phenyl)amino)pyrazin-2-yl)piperazin-1-yl)prop-2-en-1-one] | > 20 | 5.30 | 5.00
C=CC(=O)N1CCN(c2nccnc2Nc2ccc(C(F)(F)F)cc2)C[C@H]1CO [Example 16, (S)-1-(2-(hydroxymethyl)-4-(3-((4-(trifluoromethyl)phenyl)amino)pyrazin-2-yl)piperazin-1-yl)prop-2-en-1-one] | > 20 | 5.60 | 5.30
C=CC(=O)N1CCN(c2nccnc2Nc2ccc(C(F)(F)F)cc2)C[C@H]1CC#N [Example 21, (R)-2-(1-acryloyl-4-(3-((4-(trifluoromethyl)phenyl)amino)pyrazin-2-yl)piperazin-2-yl)acetonitrile] | 0.32 | 7.37 | < 5.00
C=CC(=O)N1CCN(c2nccnc2Nc2ccc(C(F)(F)F)cc2)C[C@@H]1CC#N [Example 22, (S)-2-(1-acryloyl-4-(3-((4-(trifluoromethyl)phenyl)amino)pyrazin-2-yl)piperazin-2-yl)acetonitrile] | 0.27 | 7.59 | 4.82

Second part, led by results:

IC50 (NCI-H226 cells) [µM] | pIC50 [1] | Compound | pIC50 (IMR32 cells)
0.0199 | 7.39 | C=CC(=O)N1CCN(c2nccnc2Nc2ccc(C(F)(F)F)cc2)C(C)C1 (stereo not drawn) [Example 24, 1-(3-methyl-4-(3-((4-(trifluoromethyl)phenyl)amino)pyrazin-2-yl)piperazin-1-yl)prop-2-en-1-one] | 5.60
0.006 | 8.68 | C=CC(=O)N1CC=C(c2nccnc2Nc2ccc(C(F)(F)F)cc2)CC1 [Example 25, 1-[4-(3-{[4-(trifluoromethyl)phenyl]amino}pyrazin-2-yl)-3,6-dihydro-2H-pyridin-1-yl]prop-2-en-1-one] | 4.81
0.164 | 7.53 | C=CC(=O)N1CCCN(c2nccnc2Nc2ccc(C(F)(F)F)cc2)CC1 [Example 27, 1-(4-(3-((4-(trifluoromethyl)phenyl)amino)pyrazin-2-yl)-1,4-diazepan-1-yl)prop-2-en-1-one] | 5.00
0.0904 | 7.94 | C=CC(=O)N1CCN(c2nccnc2-c2ccc(C(F)(F)F)cc2)CC1 [Example 28, 1-(4-(3-(4-(trifluoromethyl)phenyl)pyrazin-2-yl)piperazin-1-yl)prop-2-en-1-one] | < 5.00
> 20 | < 4.70 | C=CC(=O)N1CCN(c2nccnc2-c2cccc(C(F)(F)F)c2)CC1 [Example 29, 1-(4-(3-(3-(trifluoromethyl)phenyl)pyrazin-2-yl)piperazin-1-yl)prop-2-en-1-one] | < 4.70
> 1 | 7.70 | C=CC(=O)N1CCN(c2nccnc2Nc2cccc(C(F)(F)F)c2)CC1 [Example 30, 1-(4-(3-((3-(trifluoromethyl)phenyl)amino)pyrazin-2-yl)piperazin-1-yl)prop-2-en-1-one] | < 5.00
0.059 | 8.33 | C=CC(=O)N1CCN(c2nccnc2Nc2ccc(Cl)cc2)CC1 [Example 32, 1-(4-(3-((4-chlorophenyl)amino)pyrazin-2-yl)piperazin-1-yl)prop-2-en-1-one] | 4.70
0.101 | 7.99 | C=CC(=O)N1CCN(c2nccnc2Nc2ccc(F)cc2)CC1 [Example 33, 1-(4-(3-((4-fluorophenyl)amino)pyrazin-2-yl)piperazin-1-yl)prop-2-en-1-one] | < 4.70
0.198 | 7.64 | C=CC(=O)N1CCN(c2nccnc2Nc2ncc(C(F)(F)F)cn2)CC1 [Example 41, 1-(4-(3-((5-(trifluoromethyl)pyrimidin-2-yl)amino)pyrazin-2-yl)piperazin-1-yl)prop-2-en-1-one] | < 4.70
0.128 | 7.98 | C=CC(=O)N1CCN(c2nccnc2Nc2cnc(C(F)(F)F)nc2)CC1 [Example 52, 1-(4-(3-((2-(trifluoromethyl)pyrimidin-5-yl)amino)pyrazin-2-yl)piperazin-1-yl)prop-2-en-1-one] | < 4.70
0.347 | 7.72 | C=CC(=O)N1CCN(c2nccnc2NC2CCC(F)(F)CC2)CC1 [Example 66, 1-(4-(3-((4,4-difluorocyclohexyl)amino)pyrazin-2-yl)piperazin-1-yl)prop-2-en-1-one] | < 4.70
0.0115 | 9.05 | C=CC(=O)N1CCN(c2nccnc2Oc2ccc(C(F)(F)F)cc2)CC1 [Example 69, 1-(4-(3-(4-(trifluoromethyl)phenoxy)pyrazin-2-yl)piperazin-1-yl)prop-2-en-1-one] | < 4.70
0.078 | 8.15 | C=CC(=O)N1CCN(c2nccnc2OC2CCC(F)(F)CC2)CC1 [Example 93, 1-(4-{3-[(4,4-difluorocyclohexyl)oxy]pyrazin-2-yl}piperazin-1-yl) prop-2-en-1-one] | < 4.70
20 | 8.15 | C=CC(=O)N1CCN(c2nccnc2N2CC(c3ccccc3)C2)CC1 [Example 106, 1-(4-(3-(3-phenylazetidin-1-yl)pyrazin-2-yl)piperazin-1-yl)prop-2-en-1-one] | < 4.70
